Test system: Mycobacterium tuberculosis
Assay: Anti-mycobacterial activity against Mycobacterium tuberculosis mc2 6206 expressing autoluminescent luciferase infected in human THP-1 cells assessed as reduction in bacterial burden pretreated for 24 hrs followed by bacterial infection measured for 5 days post-infection with re-current replacement of media with compound for every 2 days by luminescence based assay
Assay type: functional, organism-based
Conditions: dose 0.5-5 µM, time 6.0 day

With `CCOc1ccc2c(c1)c[n+](CCO)c1ccc(F)cc21.[Br-]` the Activity was “Dose-Dependent Effect”.
